Laboratory results taken from PubChem BioAssay (NCI).
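Step 1: Grow cells in 96-well plates. Step 2: Expose to compound for 48 hours at 5 concentrations. Step 3: Interpolate endpoints linearly; if unreached, use highest concentration. At the GI50, growth is halved. TGI: total growth inhibition.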

Experiments:
Assay in all cases: NCI anticancer screen, dose series, 48 h
786-0 renal = test system: 786-0 renal
A549 NSCLC = test system: A549 NSCLC
HCT-116 colon = test system: HCT-116 colon
HOP-62 NSCLC = test system: HOP-62 NSCLC
HS 578T breast = test system: HS 578T breast
NCI-H460 lung = test system: NCI-H460 lung
SF-268 CNS = test system: SF-268 CNS
SK-MEL-28 melanoma = test system: SK-MEL-28 melanoma
SN12C renal = test system: SN12C renal
SW-620 colon = test system: SW-620 colon

Row | SMILES | TGI (786-0 renal) [µM] | TGI (A549 NSCLC) [µM] | TGI (HCT-116 colon) [µM] | TGI (HOP-62 NSCLC) [µM] | TGI (HS 578T breast) [µM] | TGI (NCI-H460 lung) [µM] | TGI (SF-268 CNS) [µM] | TGI (SK-MEL-28 melanoma) [µM] | TGI (SN12C renal) [µM] | TGI (SW-620 colon) [µM] | GI50 (786-0 renal) [µM] | GI50 (A549 NSCLC) [µM] | GI50 (HCT-116 colon) [µM] | GI50 (HOP-62 NSCLC) [µM] | GI50 (HS 578T breast) [µM] | GI50 (NCI-H460 lung) [µM] | GI50 (SF-268 CNS) [µM] | GI50 (SK-MEL-28 melanoma) [µM] | GI50 (SN12C renal) [µM] | GI50 (SW-620 colon) [µM]
1 | O=C(O)[C@@H]1C2CC([C@@H]1C(=O)O)[C@H](N1C(=O)CCC1=O)[C@@H]2Br (stereo not given in full) | > 100 | > 100 | > 100 | > 100 | > 100 | > 100 | > 100 | > 100 | > 100 | > 100 | – | – | – | – | – | – | – | – | – | –
2 | CC1(C)CCC2(C(=O)OC3OC(CO)C(O)C(O)C3O)CC[C@]3(C)C(=CCC4C5(C)CC[C@H](OC6OC(C(=O)O)C(O)C(O)C6O)C(C)(C)C5CCC43C)C2C1 (stereo not given in full) | 6.19 | 20.2 | 2.38 | 7.6 | 4.51 | > 50 | 11.4 | 12.2 | 3.55 | 8.87 | 1.56 | 1.83 | 1.12 | 2.22 | 1.62 | 2.51 | 2.17 | 2.6 | 1.39 | 1.93
3 | CC(C)(O)c1ccc(N2CCN(c3nnc(Cc4ccccc4)c4ccccc34)CC2)nc1 | 45.7 | 25.1 | 54.1 | 28.6 | 41.4 | 34.3 | 33.5 | 24.9 | 33 | 38.5 | 14.6 | 6.98 | 8.25 | 13.7 | 15.3 | 9.83 | 13.8 | 12 | 7.32 | 17.1
4 | Nc1ncnc2sc(=S)c3c(c12)CCC3 | > 100 | > 100 | > 100 | > 100 | 99.7 | > 100 | 75.6 | > 100 | > 100 | > 100 | 46.6 | 44.8 | 31.8 | 46.4 | 34.5 | 35.1 | 26.9 | > 100 | 32.8 | 33.5
5 | CCOC(=O)c1c2c(n(CC(C)C)c1C)-c1nc[nH]c1C(=O)C2=O | 33.3 | 28.1 | 18.8 | 34.2 | > 100 | 30.1 | 28.5 | 33.4 | 26.2 | 39.1 | 19.2 | 14.9 | 5.92 | 19.1 | 38.9 | 16.5 | 15.2 | 19.3 | 13.4 | 20.8
6 | CC12CCC(=O)C=C1CCC1C2CCC2(C)C(C(=O)Cn3cnc4c(=S)nc[nH]c43)CCC12 (stereo not given) | > 100 | > 100 | > 100 | 47.1 | > 100 | > 100 | > 100 | > 100 | > 100 | > 100 | – | – | – | – | – | – | – | – | – | –
7 | O=S(=O)(c1ccc(NC(=S)NCc2cccnc2)cc1)N1CCCCC1 | > 100 | > 100 | > 100 | > 100 | > 100 | > 100 | > 100 | > 100 | > 100 | > 100 | > 100 | 11 | 0.47 | > 100 | 8.65 | 7.67 | 17.2 | 50.4 | 0.21 | 0.579
8 | Nc1nc(/C=C\c2ccc([N+](=O)[O-])o2)nc(N2CCN(c3ccccc3)CC2)n1 | 25.8 | 86.5 | 12.2 | 51.3 | 93 | > 100 | > 100 | 40.5 | 43.9 | > 100 | 5.5 | 19.9 | 2.61 | 17.5 | 25.3 | 3.09 | 11.7 | 14.1 | 11.1 | 4.6
9 | O=C1c2ccccc2C(=O)N1CC1(C(=O)O)NCCS1(=O)=O (stereo not given) | > 100 | > 100 | > 100 | > 100 | > 100 | > 100 | > 100 | > 100 | > 100 | > 100 | – | – | – | – | – | – | – | – | – | –
10 | N#Cc1ncc(/N=C/c2ccc(N(CCCl)CCCl)cc2)s1 | 20.3 | > 100 | > 100 | > 100 | > 100 | 66.8 | > 100 | > 100 | > 100 | > 100 | 4.52 | 28.2 | 30.2 | 17.9 | 63.1 | 3.31 | 15.6 | 79.7 | 8.28 | 9.69
11 | CCCN(Cc1ccc(F)cc1)c1ccc(CO)c(Cl)c1 | 19.7 | 16.5 | 3.86 | 17.1 | 37.6 | 11.5 | 32.1 | 27 | 23.1 | 15.6 | 4.77 | 2.12 | 0.138 | 2.4 | 14.8 | 0.359 | 16.1 | 13.7 | 9.42 | 1.07
12 | CC[C@H](Nc1nc(N)nc(C)c1C#N)c1nc2cccc(CN(C)c3ncc(C(=O)NO)cn3)c2c(=O)n1-c1ccccc1 | 6.47 | 11.1 | 2.92 | 4.42 | > 11.1 | 11.2 | 4.19 | 3.16 | 6.03 | 3.43 | 1.53 | 2.06 | 0.364 | 0.804 | 0.474 | 1.15 | 1.09 | 0.604 | 1.11 | 0.392
13 | CSc1nnc(CCSc2ccnc3c(C(F)(F)F)cccc23)o1 | > 100 | > 100 | > 100 | > 100 | 73.2 | > 100 | > 100 | > 100 | > 100 | > 100 | 95.3 | > 100 | 66.5 | 51.7 | 18 | > 100 | 71.5 | > 100 | > 100 | > 100
